In the test the test system is MCF-7. The test is described as follows: AlamarBlue cell viability assay, MCF7. The format is cell-based, human. The conditions noted are these: Homo sapiens, MCF7, MCF-7, AlamarBlue cell viability (Table 8). From the text: (A) Inhibitory concentration 50% (IC50) values for compound 43 in the MC cell lines are tabulated, using an AlamarBlue™ cell viability assay as previously described in Pandey V et al., Breast Cancer Res. 2014; 16(5):429. (B) Measured dose-dependent manner effect of compound 43 on the viability of MC cells (left-side, TFF3-high and right, TFF3-low) using AlamarBlue™ viability assay as previously described (ibid). (C) Apoptotic cell death of mammary carcinoma cell lines measured after treatment with 10 μM compound 43 using flow cytometry analysis at 24 hour as described previously in Keerthy H K et al., PloS one. 2014; 9(9):e107118. Annexin V-FITC staining is indicated on the X-axis and PI staining on the Y-axis. […] Acquisition of Annexin V and PI data were represented as percentage (%) in each quadrant. Note: CM, conditioned media; MCF10A and MCF12A, non-transformed immortalized-mammary epithelial cell line. Points are mean of triplicate experiments; bars, ±SD. Statistical significance was assessed by using an unpaired two-tailed Student's t test (P<0.05 was considered as significant) using GraphPad Prism5. Columns are mean of triplicate experiments; bars, ±SD. **P<0.001, *P<0.05.
The human immortalized mammary epithelial cell lines, MCF10A, and MCF12A; and immortalized hepatocellular epithelial cell line, LO2 were obtained from the American Type Culture Collection (ATCC, Rockville, Md.) and were cultured as per ATCC propagation instructions. MC cell lines, MCF7, T47D, BT474, BT20, MDA-MB-361, MDA-MB-436, MDA-MB-468, and MDA-MB-231; endometrial carcinoma cell lines, Ishikawa, ECC1, RL95-2 and AN3; hepatocellular carcinoma cell lines, Hep3B, H2P, and H2M; colon carcinoma cell lines, DLD-1, and Caco-2; and prostate carcinoma cell lines, PC3, LNCaP, and DU145 were obtained from the American Type Culture Collection (ATCC, Rockville, Md.). Pancreatic carcinoma cell lines, AsPC-1 and BxPC-3; Lung carcinoma cell lines, HCC-827, NCI-H1975, HCC-4006, PC-14, and NCI-H1299; and Thyroid carcinoma cell lines HTH83, CAL62, T238, and OGK-M were obtained from Prof. H. Phillip Koeffler's laboratory at The Cancer Science Institute of Singapore, National University of Singapore (NUS). Gastric carcinoma cell lines, AGS, MKN-28, MKN-45, and A2-528 were obtained from Prof. Yoshiaki Ito's laboratory at The Cancer Science Institute of Singapore, NUS. All cell lines were cultured as per ATCC propagation instructions.
The above synthesised compounds were initially evaluated against a range of carcinoma cells using an AlamarBlue™ cell viability assay (using the protocol discussed above). The tested compounds were generally efficacious at reducing the viability of various carcinoma cells compared to vehicle (DMSO) treated cells. Table 8 provides selected IC50 data for certain of the compounds synthesised herein against MCF-7.
In table 9 IC50 values of compound 43 compound library in several cancer cell lines are tabulated, using an AlamarBlue® cell viability assay as previously described in Pandey V et al., Breast Cancer Res. 2014; 16(5):429. Statistical analysis was assessed by using GraphPad Prism5. Note: NV, no value.
Background: Alamar Blue is a resazurin reagent that responds to reducing activity.

By IC50 is commonly meant the concentration that inhibits the measured activity by half. The low end stands for inhibition by little substance, the high end for a need for much substance.

Take `COc1ccc(C2C(C#N)=C(NC(=O)Cc3cccc(Cl)c3)Oc3c2c(=O)oc2ccccc32)cc1-c1cnc(F)c(C)c1` (stereo not shown) [Compound 103]: half-maximal inhibition (IC50) required 40 µM.

`N#CC1=C(N)Oc2c(c(=O)oc3ccccc23)C1c1ccc(-c2cccnc2)cc1F` (stereo not shown) [Compound 133] had an IC50 of 3.26 µM.

Turning to `COc1ccc2c3c(c(=O)oc2c1)C(c1ccc(-c2ccnc(F)c2C)cc1)C(C#N)=C(N)O3` (stereo not shown) [Compound 150], the concentration for half-maximal inhibition (IC50) came to 1.12 µM.

Turning to `COc1ccc(C2C(C#N)=C(NC(=O)c3cccn3C)Oc3c2c(=O)oc2ccccc32)cc1-c1cnc(F)c(C)c1` (stereo not shown) [Compound 106], the IC50 was 55 µM.

On to `COc1ccc(C2C(C#N)=C(NS(=O)(=O)c3ccc([N+](=O)[O-])cc3)Oc3c2c(=O)oc2ccccc32)cc1-c1cnc(F)c(C)c1` (stereo not shown) [Compound 112], for which half-maximal inhibition (IC50) required 101 µM.

The molecule `COc1ccc2c3c(c(=O)oc2c1)C(c1ccc(-c2cccnc2)cc1)C(C#N)=C(N)O3` (stereo not shown) [Compound 143] had an IC50 of 0.685 µM.

Molecule `N#CC1=C(N)Oc2c(c(=O)oc3ccccc23)C1c1ccc(-c2ccncc2)cc1` (stereo not shown) [Compound 121] yielded an IC50 of 15.8 µM.

With `COc1ccc2c3c(c(=O)oc2c1)C(c1ccc(-c2ccc(C(F)(F)F)cc2)cc1)C(C#N)=C(N)O3` (stereo not shown) [Compound 151], inhibition was half-maximal at 2.45 µM (IC50).

For `N#CC1=C(N)Oc2c(c(=O)oc3ccccc23)C1c1ccc(-c2ccc(Cl)cc2)cc1F` (stereo not shown) [Compound 137], half-maximal inhibition (IC50) was put at 3.95 µM. Compared with the last molecule, the IC50 is about 1.6-fold higher.

On to `COc1ccc(C2C(C#N)=C(NS(=O)(=O)c3ccccc3)Oc3c2c(=O)oc2ccccc32)cc1-c1cnc(F)c(C)c1` (stereo not shown) [Compound 110], for which half-maximal inhibition (IC50) required 67.4 µM.

The molecule `COc1cccc(-c2ccc(C3C(C#N)=C(N)Oc4c3c(=O)oc3ccccc43)cc2)c1` (stereo not shown) [Compound 13] displayed an IC50 of 17.8 µM.

Consider `COc1ccc(C2C(C#N)=C(N)Oc3c2c(=O)oc2ccccc32)cc1-c1cccnc1` (stereo not shown) [Compound 79], for which the IC50 turned out to be 9.15 µM. Compared with the last molecule, the IC50 is about 1.9-fold lower.

Consider `COc1ccc(C2C(C#N)=C(N)Oc3c2c(=O)oc2ccccc32)cc1-c1ccc(Cl)c(C(F)(F)F)c1` (stereo not shown) [Compound 73], for which it took 14.8 µM to reach half-maximal inhibition (IC50).

As to `N#CC1=C(N)Oc2c(c(=O)oc3ccccc23)C1c1ccc(-c2cn[nH]c2)cc1F` (stereo not shown) [Compound 142], half-maximal inhibition (IC50) was put at 15.5 µM.

`N#CC1=C(N)Oc2c(c(=O)oc3ccccc23)C1c1ccc(-c2ccc(C(F)(F)F)cc2)cc1` (stereo not shown) [Compound 123] gave an IC50 of 2.54 µM. Compared with the last molecule, the IC50 is about 6.1-fold lower.

`Cc1ccc(-c2ccc(C3C(C#N)=C(N)Oc4c3c(=O)oc3ccccc43)c(F)c2)cn1` (stereo not shown) [Compound 135] displayed a half-inhibitory concentration (IC50) of 3.26 µM.

`Cc1ccccc1-c1ccc(C2C(C#N)=C(N)Oc3c2c(=O)oc2ccc(F)cc32)cc1` (stereo not shown) [Compound 162] yielded a concentration for half-maximal inhibition (IC50) of 164 µM.

`N#CC1=C(N)Oc2c(c(=O)oc3ccccc23)C1c1ccc(-c2ccncc2)cc1F` (stereo not shown) [Compound 131] gave an IC50 of 2.89 µM.

Consider `N#CC1=C(N)Oc2c(c(=O)oc3ccccc23)C1c1ccc(-c2cn[nH]c2)cc1` (stereo not shown) [Compound 129], for which the IC50 turned out to be 263 µM. This IC50 lies about 91-fold higher than the previous one.

Take `Cc1cc(-c2ccc(C3C(C#N)=C(N)Oc4c3c(=O)oc3ccc(F)cc43)cc2)cnc1Cl` (stereo not shown) [Compound 147]: half-maximal inhibition (IC50) required 0.526 µM.

In turn, `N#CC1=C(N)Oc2c(c(=O)oc3ccccc23)C1c1ccc(-c2cncnc2)cc1` (stereo not shown) [Compound 128] showed an IC50 of 200 µM.

On to `Cc1cc(-c2ccc(C3C(C#N)=C(N)Oc4c3c(=O)oc3ccccc43)c(F)c2)cnc1Cl` (stereo not shown) [Compound 132], for which the IC50 was found to be 1.21 µM. Against the preceding molecule, the IC50 is about 170-fold lower.

For `COc1ccc(CC(=O)NC2=C(C#N)C(c3ccc(OC)c(-c4cnc(F)c(C)c4)c3)c3c(c4ccccc4oc3=O)O2)cc1OC` (stereo not shown) [Compound 104], the IC50 is 8.96 µM.

In turn, `Cc1cc(-c2ccc(C3C(C#N)=C(NS(=O)(=O)c4ccc([N+](=O)[O-])cc4)Oc4c3c(=O)oc3ccccc43)cc2)cnc1F` (stereo not shown) [Compound 109] gave an IC50 of 34.9 µM.

In turn, `N#CC1=C(N)Oc2c(c(=O)oc3ccccc23)C1c1ccc(-c2cccc3ccccc23)cc1F` (stereo not shown) [Compound 141] showed an IC50 of 1.7 µM.

Molecule `COc1ccc(C2C(c3nnn[nH]3)=C(N)Oc3c2c(=O)oc2ccccc32)cc1-c1cnc(F)c(C)c1` (stereo not shown) [Compound 114] returned an IC50 of 39.8 µM.

On to `Cc1ccc(-c2ccc(C3C(C#N)=C(N)Oc4c3c(=O)oc3ccc(F)cc43)cc2)cn1` (stereo not shown) [Compound 152], for which inhibition was half-maximal at 77.6 µM (IC50).

In the case of `N#CC1=C(N)Oc2c(c(=O)oc3ccccc23)C1c1ccc(-c2ccc(Cl)cc2)cc1` (stereo not shown) [Compound 127], inhibition was half-maximal at 3.25 µM (IC50). Compared with the last molecule, the IC50 is about 24-fold lower.

On to `N#CC1=C(N)Oc2c(c(=O)oc3ccc(F)cc23)C1c1ccc(-c2ccc(Cl)cc2)cc1` (stereo not shown) [Compound 155], for which the midpoint of inhibition, the IC50, lay at 36.1 µM.

`COc1cccc(-c2ccc(C3C(C#N)=C(N)Oc4c3c(=O)oc3ccc(F)cc43)cc2)c1` (stereo not shown) [Compound 164] displayed an IC50 of 27.3 µM.

In turn, `N#CC1=C(N)Oc2c(c(=O)oc3ccc(F)cc23)C1c1ccc(-c2cccc3ccccc23)cc1` (stereo not shown) [Compound 156] had an IC50 of 24.8 µM.

Turning to `N#CC1=C(N)Oc2c(c(=O)oc3ccc(F)cc23)C1c1ccc(-c2cncnc2)cc1F` (stereo not shown) [Compound 168], the concentration for half-maximal inhibition (IC50) was found to be 251 µM.

In turn, `Cc1cc(-c2ccc(C3C(C#N)=C(N)Oc4c3c(=O)oc3ccccc43)cc2)cnc1Cl` (stereo not shown) [Compound 122] displayed an IC50 of 73.9 µM.

Take `Cc1ccccc1-c1ccc(C2C(C#N)=C(N)Oc3c2c(=O)oc2ccccc32)c(F)c1` (stereo not shown) [Compound 138]: the IC50 is 0.751 µM. This IC50 is about 98-fold lower than that of the molecule before.

On to `COc1ccc2c3c(c(=O)oc2c1)C(c1ccc(-c2ccc(C)nc2)cc1)C(C#N)=C(N)O3` (stereo not shown) [Compound 153], for which half-maximal inhibition (IC50) required 4.9 µM.

Turning to `COc1ccc(C2C(C#N)=C(NC(=O)c3cc(Cl)ccc3Cl)Oc3c2c(=O)oc2ccccc32)cc1-c1cnc(F)c(C)c1` (stereo not shown) [Compound 105], 23.7 µM corresponded to half-maximal inhibition (IC50).

`COc1ccc(C2C(C#N)=C(NC(=O)c3ccc(C(F)(F)F)cc3)Oc3c2c(=O)oc2ccccc32)cc1-c1cnc(F)c(C)c1` (stereo not shown) [Compound 102] returned an IC50 of 33 µM.

On to `COc1ccc(C2C(C#N)=C(N)Oc3c2c(=O)oc2ccccc32)cc1-c1ccccc1` (stereo not shown) [Compound 49], for which the IC50 was 28.2 µM.

The molecule `N#CC1=C(N)Oc2c(c(=O)oc3ccccc23)C1c1ccc(-c2cncnc2)cc1F` (stereo not shown) [Compound 139] came in with an IC50 of 4.23 µM.

With `N#CC1=C(N)Oc2c(c(=O)oc3ccccc23)C1c1ccc(-c2ccc(C(F)(F)F)cc2)cc1F` (stereo not shown) [Compound 134], it took 1.84 µM to reach half-maximal inhibition (IC50).

The molecule `Cc1cc(-c2ccc(C3C(c4nnn[nH]4)=C(N)Oc4c3c(=O)oc3ccccc43)cc2)cnc1F` (stereo not shown) [Compound 113] yielded an IC50 of 33.1 µM.

As for `COc1cccc(-c2cc(C3C(C#N)=C(N)Oc4c3c(=O)oc3ccccc43)ccc2OC)c1` (stereo not shown) [Compound 61], the IC50 turned out to be 8.94 µM.

For the molecule `Cc1ccc(-c2ccc(C3C(C#N)=C(N)Oc4c3c(=O)oc3ccccc43)cc2)cn1` (stereo not shown) [Compound 124], the IC50 was 43.8 µM.

`COc1ccc2c3c(c(=O)oc2c1)C(c1ccc(-c2ccc(Cl)cc2)cc1)C(C#N)=C(N)O3` (stereo not shown) [Compound 154]: the IC50 was determined as 5.74 µM. This IC50 is about 7.6-fold lower than that of the molecule before.

`N#CC1=C(N)Oc2c(c(=O)oc3ccc(F)cc23)C1c1ccc(-c2cccnc2)cc1` (stereo not shown) [Compound 144] gave an IC50 of 6.85 µM. The IC50 values of the last two molecules are within 1.5-fold of each other.

Take `Cc1c(-c2ccc(C3C(C#N)=C(N)Oc4c3c(=O)oc3ccc(F)cc43)cc2)ccnc1F` (stereo not shown) [Compound 149]: the IC50 was found to be 43.3 µM.

`N#CC1=C(N)Oc2c(c(=O)oc3ccccc23)C1c1ccc(-c2ccc(Cl)c(C(F)(F)F)c2)cc1` (stereo not shown) [Compound 25] had an IC50 of 18.4 µM.

The molecule `COc1cccc(-c2ccc(C3C(C#N)=C(N)Oc4c3c(=O)oc3ccccc43)c(F)c2)c1` (stereo not shown) [Compound 140] came in with a half-inhibitory concentration (IC50) of 1.07 µM.

As to `Cc1c(-c2ccc(C3C(C#N)=C(N)Oc4c3c(=O)oc3ccccc43)c(F)c2)ccnc1F` (stereo not shown) [Compound 130], the half-inhibitory concentration (IC50) worked out at 7.93 µM. Against the preceding molecule, the IC50 is about 7.4-fold higher.

Molecule `COc1ccc(C2C(C#N)=C(N)Oc3c2c(=O)oc2ccccc32)cc1-c1cnc(F)c(C)c1` (stereo not shown) [Compound 91] registered an IC50 of 11.8 µM. The IC50 values of the last two molecules are within 1.5-fold of each other.

With `COc1ccc2c3c(c(=O)oc2c1)C(c1ccc(-c2ccccc2C)cc1)C(C#N)=C(N)O3` (stereo not shown) [Compound 163], the IC50 came out at 22.8 µM. This IC50 lies about 1.9-fold higher than the previous one.

As for `COc1ccc2c3c(c(=O)oc2c1)C(c1ccc(-c2cnc(Cl)c(C)c2)cc1)C(C#N)=C(N)O3` (stereo not shown) [Compound 148], 7.38 µM corresponded to half-maximal inhibition (IC50).

Values taken from US20200147039A1, “COMPOUNDS USEFUL IN INHIBITING HUMAN TREFOIL FACTOR 3” (NATIONAL UNIVERSITY OF SINGAPORE, priority 2017, published 2020).
